# Results published in patent US7399760B2, “Pyrimidinedione derivatives” (Bexel Pharmaceuticals Inc., priority 2002, dated 2008).
# Tests used:
# TNF-α = TNF-α production from LPS-stimulated human monocytes (ELISA); assay type: cell-based; conditions: Monocyte, Conc. 10 μM
# Experimental: (§1) This assay determines the effect of test compounds on the production of TNF-α from human monocytes. Compounds were tested for their ability to downregulate the production of TNF-α in activated monocytes. Test compounds were incubated for three, six and twenty four hours with human monocytes. Lipopolysaccharide was used to stimulate the monocytes. The level of TNF-α was quantitated using Enzyme-Linked Immunosorbent assay performed in a 96 well format.
# IL-6 = IL-6 production from LPS-stimulated human monocytes (ELISA); assay type: cell-based; conditions: Monocyte, Conc. 10 μM
# Experimental: as §1, with “of IL-6” for “of TNF-α”, “Compounds are” for “Compounds were”, “of Interleukin-6 is” for “of TNF-α was”
# COX-2 = target: T1, COX-2 (Homo sapiens, UniProt P35354); experiment: Human whole blood assay, COX-2 inhibition (PGE2 ELISA after LPS); assay type: cell-based; conditions: Conc. 1 μM, aspirin-treated, LPS 10 μg/ml, 24 h at 37° C., PGE2 in plasma
# T1 construct: incubation of human blood with lipopolysaccharide (LPS), which induces COX-2 production in the blood; endogenous in cells; host or cells: fresh human whole blood from male volunteers, treated with aspirin and then LPS
# T1 sequence (P35354 18-604): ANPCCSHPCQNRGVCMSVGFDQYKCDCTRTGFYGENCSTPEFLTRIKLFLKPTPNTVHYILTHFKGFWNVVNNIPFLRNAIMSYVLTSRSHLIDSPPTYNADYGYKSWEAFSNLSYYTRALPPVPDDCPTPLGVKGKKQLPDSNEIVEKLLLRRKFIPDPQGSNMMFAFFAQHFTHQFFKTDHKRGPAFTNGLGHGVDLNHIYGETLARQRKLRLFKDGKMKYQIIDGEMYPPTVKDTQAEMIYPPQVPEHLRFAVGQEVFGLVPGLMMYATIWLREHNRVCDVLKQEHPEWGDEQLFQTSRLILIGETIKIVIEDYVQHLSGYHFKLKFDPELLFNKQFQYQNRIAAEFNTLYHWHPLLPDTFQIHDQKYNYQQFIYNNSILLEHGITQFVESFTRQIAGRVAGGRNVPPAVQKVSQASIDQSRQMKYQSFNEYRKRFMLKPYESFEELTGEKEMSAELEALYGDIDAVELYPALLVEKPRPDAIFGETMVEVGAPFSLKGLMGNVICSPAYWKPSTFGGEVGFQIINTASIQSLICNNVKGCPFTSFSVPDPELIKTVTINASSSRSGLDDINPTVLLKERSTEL
# Experimental: The COX-2 inhibition activity of the compounds illustrated in the examples was determined by the following method.
# Human whole blood provides a protein and cell rich milieu appropriate for the study of biochemical efficacy of anti-inflammatory compounds such as selective COX-2 inhibitors. […] This is correlating with the observation that COX-2 inhibitors have no effect on prostaglandin E2 (PGE2) production in normal blood. These inhibitors are active only after incubation of human blood with lipopolysaccharide (LPS), which induces COX-2 production in the blood.
# Fresh blood was collected in tubes containing potassium EDTA by vein puncture from male volunteers. The subjects should have no apparent inflammatory conditions and not taken NSAIDs for atleast 7 days prior to blood collection. Blood was treated with aspirin in vitro (10 μg/ml, at time zero) to inactivate COX-1, and then with LPS (10 μg/ml) along with test agents or vehicle. The blood was incubated for 24 h at 37° C., after which the tubes were centrifuged, the plasma was separated and stored at −80° C. (J Pharmacol Exp Ther 271, 1705, 1994; Proc Natl Acad Sci USA 96, 7563, 1999). The plasma was assayed for PGE2 using Cayman ELISA kit as per the procedure outlined by the manufacturer (Cayman Chemicals, Ann Arbor, USA). […]
Structure (SMILES),inhibition at 10 µM (TNF-α) [%],inhibition at 10 µM (IL-6) [%],melting point,inhibition at 1 µM (COX-2) [%]
"CSc1ccc(-n2c(-c3ccccc3)cc(=O)[nH]c2=O)cc1 [Example 1, 1-(4-methylsulfanyl-phenyl)-6-phenyl-1H-pyrimidin-2,4-(1H)-dione]",48.5,80.6,239 to 242 °C (dec.),–
"CSc1ccc(-n2c(-c3ccc(C)cc3)cc(=O)[nH]c2=O)cc1 [Example 2, 1-(4-methylsulfanyl-phenyl)-6-(4-methylphenyl)-1H-pyrimidin-2,4-(1H)-dione]",69.3,78.6,235 to 238 °C,–
"CSc1ccc(-n2c(-c3ccc(Cl)cc3)cc(=O)[nH]c2=O)cc1 [Example 3, 1-(4-methylsulfanyl-phenyl)-6-(4-chlorophenyl)-1H-pyrimidin-2,4-(1H)-dione]",–,–,249 to 251 °C,–
"CSc1ccc(-c2cc(=O)[nH]c(=O)n2-c2ccc(C)cc2)cc1 [Example 4, 1-(4-methylphenyl)-6-(4-methylsulfanyl-phenyl)-1H-pyrimidin-2,4-(1H)-dione]",–,–,266 to 268 °C,–
"CSc1ccc(-c2cc(=O)[nH]c(=O)n2-c2ccc(Br)cc2)cc1 [Example 5, 1-(4-bromophenyl)-6-(4-methylsulfanyl-phenyl)-1H-pyrimidin-2,4-(1H)-dione]",–,–,282 to 285 °C,–
"CS(=O)(=O)c1ccc(-n2c(-c3ccccc3)cc(=O)[nH]c2=O)cc1 [Example 6, 1-(4-methylsulfonyl-phenyl)-6-phenyl-pyrimidin-1H-pyrimidin-2,4-(1H)-dione]",43.2,75.3,283 to 287 °C (dec.),–
Cc1ccc(-c2cc(=O)[nH]c(=O)n2-c2ccc(S(C)(=O)=O)cc2)cc1 [Example 7],57.6,81.3,285 to 288 °C,40.8
"CS(=O)(=O)c1ccc(-n2c(-c3ccc(Cl)cc3)cc(=O)[nH]c2=O)cc1 [Example 8, 6-(4-chlorophenyl)-1-(4-methylsulfonyl-phenyl)-1H-pyrimidin-2,4-(1H)-dione]",–,–,294 to 298 °C,–
